Test results as given in patent US8299049B2, “Compositions comprising an extract of Tiarella polyphylla or compounds isolated therefrom for preventing and treating cancer diseases” (Korea Institute of Bioscience and Biotechnology, priority 2007, dated 2012).

How the values were obtained:
Type in all cases: cell-based
[1] = system: TM4SF5-expressing SNU449Tp cells; assay: Inhibitory effect on growth of TM4SF5-expressing cell
Protocol: (§1) After virus infection, pooled stable clones (control SNU449Cp and TM4SF5-expressing SNU449Tp cell clones) and single cell-driven stable clones (TM4SF5-expressing SNU449T16) were prepared by infecting SNU449 hepatocytes (Korean Cell Bank, Seoul, Korea) with retrovirus for empty pLNCX or pLNCX with TM4SF5. Parental and control cells (Cp) were maintained in RPMI-1640/10% FBS/0.25 μg/ml gentamycin (Calbiochem, San Diego, Calif.) without or with 200 μg/ml G418 (A.G. Scientific Inc., San Diego, Calif.), respectively, at 37° C. and 5% CO2. Cells endogenously expressing TM4SF5 or cells endogenously expressing no TM4SF5 (Korean Cell Bank) were maintained in either DMEM-H or RPMI-1640 media with 10% FBS (JBI Inc., Daegu, Korea).

[2] = system: TM4SF5 null SNU449Cp cells; assay: Inhibitory effect on cell growth, TM4SF5-null control cells; conditions: 20 μM, 3 days
Protocol: as §1

[3] = system: TM4SF5; assay: Effect of TA treatment on TM4SF5 expression of P, Cp, Tp and T16 cells
[4] = system: TM4SF5-null cells including Hek293 and COST fibroblast, MDA-MB-453 breast, SNU638 and SNU668 stomach, and SNU398 liver epithelial cells; assay: Cell number of diverse cell lines without TM4SF5 after TA treatment; conditions: TA 5 or 20 μM
Protocol: as §1
(§2) Next, to confirm that tiarellic acid (TA) is specific to TM4SF5, cytotoxicity of tiarellic acid (TA) was examined using cells with endogenous TM4SF5 expression. RT-PCR was performed using a primer set described in the following Table 1 under the conditions including 30 cycles of 94° C. for 30 sec, 55° C. for 30 sec, and 72° C. for 30 sec. Diverse cell lines were treated with tiarellic acid (TA) at a concentration of 5 or 20 μM.

[5] = system: cells with endogenous TM4SF5 expression; assay: Cell number of cell lines with endogenous TM4SF5 expression after TA treatment; conditions: TA 5 or 20 μM
Protocol: as §1, §2

[6] = system: focal adhesion kinase (FAK), paxillin, p130Cas in TM4SF5-expressing SNU449T16 cells; assay: Immunoblot of focal adhesion molecule expression and activation, SNU449T16
Protocol: (§3) Whole cell lysates from cells under diverse experimental conditions were prepared, as described in the literature (Lee, S. Y. et al., Focal adhesion and actin organization by a cross-talk of TM4SF5 with integrin α2 are regulated by serum treatment, Exp Cell Res, 312, pp. 2983-99, 2006). For example, cells were subjected to electroporation (950 μF, 250 V) with a control GFP, wild-type focal adhesion kinase (FAK), paxillin, p130Cas cDNA. One day after electroporation, cells were treated with TA (20 μM) for the indicated periods. Cells cultured normally or treated with TA at different concentrations for the indicated periods were harvested using RIPA buffer. Control or tumor tissues from nude mice were frozen immediately after surgery using liquid N2. Tissues in the liquid N2 was homogenized using a mortar and pestle, and extracted using 0.1% SDS containing RIPA buffer. Standard Western blots of lysates were performed by using antibody against phospho-Y^397, Y^407, Y^577, Y^861, Y^925 FAK (BioSource International, Inc., Camarillo, Calif.), phospho-Y^416Src, c-Src, p15^INK4B, p16^INK4A (Santa Cruz Biotech., Santa Cruz, Calif.), FAK, p130Cas, paxillin, pY^118paxillin, active caspase-3 (BD Transduct. Lab., San Jose, Calif.), α-tubulin (Sigma, St Louis, Mo.), phopsho-S^473, or T^308Akt, Akt, phospho-Erk1/2, Erk1/2 (Cell Signaling Tech., Danvers, Mass.), and TM4SF5 (homemade).
To examine which signaling molecule is affected by tiarellic acid (TA), the following procedure was performed, as described in the literature (Lee, S. Y. et al., Focal adhesion and actin organization by a cross-talk of TM4SF5 with integrin α2 are regulated by serum treatment, Exp Cell Res, 312, pp. 2983-99, 2006).
The SNU449 cell lines were treated with tiarellic acid (TA) in a dose- (0, 1, 5, 20 μM) and time-dependent (0, 8, 16, 24, 36 hrs) manner.
The SNU449Cp and SNU449T16 cell lines were treated with tiarellic acid (TA) at varying concentrations (0, 1, 5, 20 μM) for 24 hrs, and then immunoblot assay was performed.

[7] = system: focal adhesion molecules in SNU449Cp cells expressing no TM4SF5; assay: Immunoblot of focal adhesion molecule expression and activation, SNU449Cp
Protocol: as §3, with “(homemade). […]” for “(homemade).”

[8] = system: focal adhesion molecules in TM4SF5-expressing SNU449Tp cell line; assay: Immunoblot of focal adhesion molecule expression and activation, SNU449Tp; conditions: FIG. 11
Protocol: as §3, with “(homemade). […]” for “(homemade).”

[9] = system: focal adhesion molecules in cells that express endogenous TM4SF5; assay: Focal adhesion molecule activation in cells endogenously expressing TM4SF5; conditions: FIG. 12
Protocol: as §3

[10] = system: focal adhesion molecules in cells lacking TM4SF5; assay: Focal adhesion molecule activation in TM4SF5-null cell lines; conditions: FIG. 12
Protocol: as §3

[11] = system: TM4SF5-expressing cells; assay: Immunofluorescence of focal adhesions and actin, TM4SF5-expressing cells
Protocol: Cells were treated with DMSO or 20 μM TA for 24 hrs. Then, the cells were plated on 10 μg/ml fibronectin-precoated coverslips and incubated for 2 hrs in the presence of DMSO or 20 μM TA. Subsequently, immunofluorescence staining was performed using pY^397 FAK, pY^118 paxillin, and actin, as described in the literature (Lee, S. Y. et al., Focal adhesion and actin organization by a cross-talk of TM4SF5 with integrin α2 are regulated by serum treatment, Exp Cell Res, 312, pp. 2983-99, 2006). Mounted samples were visualized by a fluorescent microscope (BX51, Olympus, Japan).

C=C(C)C1CC[C@]2(C)CC[C@]3(C(=O)O)C(CCC4[C@@]5(C)CC[C@H](O)[C@@](C)(CO)C5CC[C@]43C)C12 (some centres unmarked) [tiarellic acid (TA), 3,23-dihydroxy-20(29)-lupen-27-oic acid]
number of TM4SF5-expressing cells ([1]; FIG. 4, depending on concentration and time): decreased | inhibitory effect on cell growth ([1]; SNU449Tp, 5 μM, 3 days): inhibitory effect was observed | cell density and cell shape ([1]; SNU449Tp, 20 μM, 3 days): reduced cell density and round shaped cells were observed | inhibitory effect on the growth of TM4SF5-expressing cell ([1]; TA 0, 0.1, 5, 20 μM): inhibitory effect | inhibitory effect on cell growth [2]: not observed | expression level of TM4SF5 [3]: without affecting | proliferation of TM4SF5-null cells [4]: not affected | growth of cells with endogenous TM4SF5 expression [5]: growth suppression | p130Cas phosphorylation and physical association among FAK, p130Cas, and paxillin ([6]; FIG. 10, cell line not stated): decreased | FAK and paxillin phosphorylation and p130Cas protein levels over time ([6]; SNU449T16, 20 μM TA, 0, 8, 16, 24, 36 hrs): remarkably decreased in a time-dependent manner | FAK and paxillin phosphorylations and p130Cas protein levels ([6]; SNU449T16, 20 μM TA, 24 hrs): reduced | pErk1/2 ([7]; FIG. 11): slightly increased | FAK and paxillin phosphorylations and p130Cas protein levels ([7]; TA up to 20 μM, 24 hrs): no effect | TM4SF5-dependent inhibitory effects on focal adhesion molecules [8]: inhibitory effects | pErk1/2 [8]: slightly increased | inhibitory effects on focal adhesion molecule activation [9]: observed | inhibitory effects on focal adhesion molecule activation [10]: not | focal adhesions ([11]; 20 μM TA): lost | immunostaining for pY397FAK or pY118paxillin ([11]; FIG. 13): disassembly of focal adhesion molecules was observed | association between integrin α5 and pY397FAK ([11]; FIG. 14): dissociation
